Measurements as given in US20220323416A1, “Ferroportin-Inhibitors For The Use In The Prevention And Treatment Of Kidney Injuries” (Vifor (International) AG, priority 2019, published 2022).

Columns and labels:
C57BL/6 mice = test: Reduction of serum iron by Fpn127 in C57BL/6 mice; type: in vivo, mouse; details: naïve C57BL/6 mice; for Serum iron: 4 h post dosing; for Serum iron (hypoferremia sustained): 8 h post dosing
Procedure: FIG. 2: Serum iron levels in naïve C57BL/6 mice treated with Fpn127 at 120 mg/kg or 300 mg/kg for 4 h or 8 h. Vehicle was 0.5% methylcellulose in water
To determine the dose of Fpn127 that causes sustained serum iron reduction, C57BL/6 mice received either 120 mg/kg or 300 mg/kg of Fpn127 po for 4 h or 8 h.

guinea pigs = details: cited from earlier work
[1] = i.v. dosing after RBC transfusion

| Structure (SMILES) | Serum iron (C57BL/6 mice; 120 mg/kg po) | Serum iron (hypoferremia sustained) (C57BL/6 mice; 120 mg/kg po) | Serum iron (C57BL/6 mice; 300 mg/kg po) | Serum iron (hypoferremia sustained) (C57BL/6 mice; 300 mg/kg po) | Hb levels following exchange transfusion (guinea pigs; [1]) | NTBI levels following exchange transfusion (guinea pigs; [1]) | Total iron in kidneys following transfusion (guinea pigs; [1]) | Occurrence of changes in plasma creatinine >0.3 mg/dL (indicator of early AKI) (guinea pigs; i.v. dosing, transfused animals) | Cellular injury (guinea pigs; i.v. immediately after acute red blood cell transfusions) |
| --- | --- | --- | --- | --- | --- | --- | --- | --- | --- |
| O=C(NCc1ncccc1F)c1coc(CCNCCc2nc3ccccc3[nH]2)n1 [Fpn127] | reduced significantly | only the dose of 300 mg/kg sustained the hypoferremia | reduced significantly | sustained the hypoferremia |  |  |  |  |  |
| O=C(NCc1ncccc1F)c1csc(CCNCc2nc3ccccc3[nH]2)n1 [VIT-2653] |  |  |  |  | significantly improved | significantly improved | can be reduced | significantly reduced | attenuation of cellular injury |
